# Source: patent US20160045487A1, “COMPOSITIONS AND METHODS FOR TREATING NEUROPATHY” (CHILDEREN'S MEDICAL CENTER CORPORATION, priority 2013, published 2016)
# Legend:
# Type in all cases: in vivo, mouse
# [1] = system: GFAP-DN-erbB4 and wild type mice; assay: Mechanical sensitivity (von Frey filaments); details: after 4 weeks topical treatment, cream 1.5 mM
# Description: (§1) As a first test, a cream containing XIB4035 (1.5 mM) was applied directly to the hind paws of GFAP-DN-erbB4 and wild type mice twice daily for a period of 4 weeks starting prior to symptom onset (P21). Mice of both genotypes were also treated with the base cream containing no drug for control. Mice were tested for responses to a noxious thermal stimulus prior to the initiation of treatment and every 7 days for the duration of the experiment.
# Mechanical sensitivity was tested by simulation of the plantar surface of the hind paw with a series of von Frey filaments while the animal was placed on an elevated wire grid. The threshold was determined as the lowest force that evoked a visible withdrawal response. The use of animals was approved by the Animal Care and Use Committee of Children's Hospital Boston.
# [2] = system: GFAP-DN-erbB4 mice; assay: PGP9.5-positive IENF density in hind paw skin; details: treatment initiated after disease onset (P28), read at P35
# Description: (§2) However, in the clinic, therapy would almost certainly begin after patients present with symptoms of SFN. Therefore, it was determined whether topical XIB4035 can act as a disease-modifying agent in the GFAP-DN-erbB4 neuropathy model starting after animals are clearly symptomatic (P28). […] While IB4 labeling in mutant mice was lower than wild types regardless of treatment, IB4 signal was clearly present in mutant mice treated with XIB4035 while absent in those treated with control cream (FIG. 3D; 83% of XIB4035 treated mice (n=6) with IB4+ lamina II terminals vs 0% (n=4) in control treated mice) (FIG. 3D).
# Mice were anesthetized with 2.5% Avertin. Hind paws were removed, immersion fixed in 2% paraformaldehyde, 14% picric acid in 0.1 M phosphate buffer (pH 7.4) overnight at 4° C., and cryoprotected in 20% sucrose overnight at 4° C. Footpad skin was dissected from hind paws, embedded in OCT, sectioned at 30 μm, and stained as floating sections. […]
# Skin section images were acquired as 30 μm Z-stacks (1 μm intervals) and processed as maximum intensity projections using a Zeiss LSM 700 microscope and ZEN software. […] A measured line was drawn using the DAPI channel to delineate the border between basal keratinocytes and outer layers of the epidermis. All PGP9.5 positive IENFs crossing the border were counted and expressed as a number per 100 μm length. […]
# [3] = system: GFAP-DN-erbB4 mice; assay: Hot plate (54° C.) thermal nociception test, GFAP-DN-erbB4 small fiber neuropathy model
# Description: as §1, §2
# Transgenic mouse lines used were as previously described (Lacomis et al., Muscle Nerve 26, 173-188 (2002); Comblath et al., Current opinion in Neurology 19, 446-450 (2006)). Animals were kept in the animal facility with free access to food and water. Behavioral experiments were performed in a quiet environment at the same time of day. The hot plate test was performed using a “controlled hot-plate analgesia meter” (Columbus Instruments) heated to 54° C. Paw withdrawal latency was measured as the time required for the mouse to visibly respond to the thermal stimulus, e.g. licking paws, shaking paws, or jumping off of the plate.
# (§3) The cream containing XIB4035 (1.5 mM, ZereneX Molecular Ltd., Manchester, UK) consisted of N-methyl-pyrrolidone (6.25%), isopropyl myristate (6.25%) and petroleum jelly (87.5%). Control cream had the same ingredients without XIB4035. Cream was applied twice daily to the hind paws of mice starting at P21 for a period of 4 weeks for prophylactic treatment of GFAP-DN-erbB4. […]
# [4] = system: STZ-induced diabetic mice; assay: Hargreaves thermal nociception test in STZ-induced diabetic mice; details: topical cream for 16 weeks from hyperglycemia; tests from week 8
# From the text: To explore the utility of XIB4035 in a more clinically relevant model, diabetic peripheral neuropathy was selected because more than 50% of all diabetic patients develop some form of peripheral neuropathy, particularly SFN. Streptozotocin (STZ) induced diabetic model was chosen, in which a single injection of STZ kills pancreatic beta cells causing diabetes and produces SFN symptoms several weeks later. Upon becoming hyperglycemic, STZ injected mice were topically treated daily with either control or XIB4035 containing cream for 16 weeks. Thermal nociceptive tests began 8 weeks after initiation of treatment and were repeated every two weeks.
# Adult female C57 Bl/6J mice were made diabetic (blood glucose >15 mmol/L) by injection of STZ (90 mg/kg i.p.) on two consecutive days, with confirmation of hyperglycemia made 7 days after STZ delivery. Paw thermal response latency of the right paw was measured every two weeks from weeks 8-16 of diabetes using a modified Hargeaves test, as described
# as §3
structure (smiles),measurement,setting,value
"CCN(CC)CCCC(C)Nc1cc(/C=C/c2ccccc2Cl)nc2cc(Cl)ccc12 (stereo not drawn) [XIB4035, N4-{7-chloro-2-[(E)-2-(2-chloro-phenyl)-vinyl]-quinolin-4-yl}-N1,N1-diethyl-pentane-1,4-diamine]",effect on mechano-reception (response thresholds to mechanical stimuli),[1],no effect
same,IENF density in hind paw skin,[2],did not rescue IENF density
same,reaction times to noxious thermal stimulus (thermal nociception),"[3]; prophylactic, cream 1.5 mM on hind paws twice daily, 4 weeks from P21, 54° C. hot plate",indistinguishable from wild type animals
same,neuropathic symptoms (thermal nociception),"[3]; therapeutic, treatment started after onset (P28), read one week later (P35), persisted with continued treatment",significant reduction in symptoms
same,neuropathic symptoms after interruption of treatment,"[3]; treatment initiated at P28, interrupted at P35",neuropathic symptoms reappeared one week later
same,sensory function (thermal nociceptive tests),[4],better sensory function than those exposed to the control cream
